The assay can be described thus: Inhibition of CD2 assessed as inhibition of CD2-CD58 protein-protein interaction mediated cell adhesion between CD58 expressing sheep red blood cells and CD2 expressing human Jurkat cells by E-rosettes assay.

The structures appear in SMILES notation. pIC50: −log10 of the molar value. *1 amine or outer side, *2 acyl side, *3 side chain or, on linkers, in order; H or OH if unused. Where a SMILES comes first, the peptide text is derived from it. [ ]: non-standard residue; d: D form. X1 = O=C(CCc1cccc2c1oc1c(CCN[*:1])cccc12)[*:2]

For `CC[C@H](C)[C@@H]1NC(=O)[C@H](Cc2ccc(O)cc2)NC(=O)[C@H](CC(=O)O)NC(=O)CCc2cccc3c2Oc2c(cccc2-3)CCNC(=O)[C@H](CC(=O)O)NC(=O)[C@H](CC(=O)O)NC(=O)[C@H](CCCCN)NC1=O` (cyclo(DD[X1]DYIK)), the negative logarithm of the IC50 (pIC50) (usually −log10 of the IC50, conventionally taken in molar units) is 7.59.

(Values after BindingDB's records for doi:10.1021/jm200004e (University of Louisiana At Monroe, 2011).)
